Measured values reported in patent US20190047966A1, “NOVEL COMPOUND AND PHARMACOLOGICALLY ACCEPTABLE SALT THEREOF” (MEIJI SEIKA PHARMA CO., LTD., priority 2016, published 2019).
Structures can show the parent of a compound that is named as a salt.

How the values were obtained:
[1] = target: T1, human histamine H1 receptor (Homo sapiens, UniProt P35367); assay: Evaluation of Human H1 Receptor Affinity ([3H]pyrilamine binding); parameters: purchased PerkinElmer Inc; host or cells: CHO-K1; conditions: inhibition constant Ki, CHO-K1 membrane preparation
T1 sequence (P35367 whole entry): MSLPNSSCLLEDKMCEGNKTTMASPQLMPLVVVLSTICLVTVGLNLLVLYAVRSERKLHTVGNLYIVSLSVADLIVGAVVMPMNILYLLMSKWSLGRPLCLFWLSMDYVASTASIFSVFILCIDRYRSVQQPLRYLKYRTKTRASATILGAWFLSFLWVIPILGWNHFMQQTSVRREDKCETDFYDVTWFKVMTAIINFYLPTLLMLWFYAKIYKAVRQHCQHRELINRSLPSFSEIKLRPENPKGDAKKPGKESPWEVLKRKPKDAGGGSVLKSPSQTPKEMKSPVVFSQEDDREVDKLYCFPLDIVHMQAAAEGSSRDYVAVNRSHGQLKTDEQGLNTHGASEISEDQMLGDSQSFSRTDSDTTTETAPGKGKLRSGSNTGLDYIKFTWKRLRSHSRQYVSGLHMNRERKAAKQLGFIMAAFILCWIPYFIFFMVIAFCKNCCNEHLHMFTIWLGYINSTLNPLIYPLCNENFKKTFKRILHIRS
Summary of the method: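 Ki values are Cheng-Prusoff conversions of IC50 (Kd 1.1 nM) from radioligand displacement of 1.2 nM [3H]pyrilamine, with 1.0 μM pyrilamine defining nonspecific binding.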

[2] = target: T2, human histamine H4 receptor (Homo sapiens, UniProt Q9H3N8); assay: Evaluation of H4 Receptor Function ([35S]GTPγS binding); format: biochemical; conditions: [35S]GTPγS binding, CHO-K1 membrane, 0.1 μM histamine; read-out: Evaluation of H4 Receptor Function (IC50 value, antagonistic effect)
T2 construct: purchased PerkinElmer Inc; host or cells: CHO-K1
Description: The antagonistic effect was evaluated by the method described below. Membrane preparation from recombinant CHO-K1 cell expressing the human histamine H4 receptor (PerkinElmer Inc.), 10 μM GDP, 0.1 μM histamine, and the compounds dissolved in DMSO were reacted at 30° C. for 20 minutes in a buffering solution containing 20 mM HEPES, pH 7.4, 100 mM NaCl, 10 mM MgCl2, 1 mM DTT, and 1 mM EDTA on an assay plate. Thereafter, SPA beads (Amersham plc) were added, followed by incubation for 60 minutes, and further 0.3 nM [^35S]GTPγS (PerkinElmer Inc.) was added, followed by incubation for 30 minutes.

[3] = target: T2, human histamine H4 receptor; assay: Evaluation of Human H4 Receptor Affinity ([3H]histamine binding); conditions: inhibition constant Ki, CHO-K1 membrane preparation, read-out: Evaluation of H4 Receptor Affinity
Summary of the method: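 Radioligand displacement: compound competes with 8.2 nM [3H]histamine at recombinant human H4 receptor in CHO-K1 membranes (Tris-HCl 50 mM pH 7.4, EDTA 1.25 mM; 25 °C, 90 min), with filter-bound radioactivity counted. IC50 was converted to Ki via Cheng-Prusoff (Kd 5.7 nM); 1.0 μM histamine set nonspecific binding.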

[4] = target: T1, human histamine H1 receptor; assay: Evaluation of Human H1 Receptor Function (GeneBLAzer H1-NFAT-bla HEK 293T cells); format: cell-based; conditions: histamine 30 nM, read-out: Evaluation of H1 Receptor Function (IC50 value, antagonistic effect)
Description: Test Example 3: Evaluation of Human H1 Receptor Function
The antagonistic effect was evaluated by the method described below. GeneBLAzer® H1-NFAT-bla HEK 293T-cells (Invitrogen Corporation, recombinant cells expressing the human histamine H1 receptor) were incubated at 37° C. for 30 minutes in the presence of the test compounds dissolved in DMSO in a high glucose Dulbecco's Modified Eagle Medium (GlutaMAX, containing 10% fetal bovine serum, 100 μM nonessential amino acids, 25 mM HEPES, 100 U/mL penicillin, and 100 μg/mL streptomycin), and histamine was added such that the final concentration became 30 nM, followed by further incubation for 4.5 hours. Then, a mixture of LiveBLAzer™ FRET-B/G Loading Kit (Invitrogen Corporation) and Solution D (Invitrogen Corporation) was added, followed by leaving to stand at room temperature for 2 hours under shaded conditions. Thereafter, the fluorescence intensity was measured under two conditions of 400 nm/460 nm and 400 nm/535 nm (excitation light/fluorescence) by using a multilabel counter (EnVision: PerkinElmer Inc.). The 50% inhibitory concentration (IC50 value) was calculated in accordance with (measured value−blank measured value at 400 nm/460 nm)/(measured value−blank measured value at 400 nm/535 nm) of each test sample.

Ki [1] [nM] | IC50 [2] [nM] | Ki [3] [nM] | IC50 [4] [nM] | SMILES
< 100 | < 200 | < 100 | < 200 | C[C@]1(C(=O)O)C[C@H](OCCN2CCN(c3nc(N)nc4c3CCc3cc(OCc5ccc(OC(F)(F)F)cc5)ccc3-4)CC2)C1 [Example 32, trans-3-(2-(4-(2-amino-8-((4-(trifluoromethoxy)benzyl)oxy)-5,6-dihydrobenzo[h]quinazolin-4-yl)piperazin-1-yl)ethoxy)-1-methylcyclobutane-1-carboxylic acid]
< 100 | < 200 | < 100 | < 200 | Nc1nc2c(c(N3CCN(CCO[C@H]4C[C@@H](CC(=O)O)C4)CC3)n1)CCc1cc(OCc3ccc(OC(F)(F)F)cc3)ccc1-2 [Example 36, cis-2-(3-(2-(4-(2-amino-8-((4-(trifluoromethoxy)benzyl)oxy)-5,6-dihydrobenzo[h]quinazolin-4-yl)piperazin-1-yl)ethoxy)cyclobutyl)acetic acid]
< 100 | < 200 | < 100 | < 200 | Nc1nc2c(c(N3CCN(CCO[C@@H]4CO[C@@H](C(=O)O)C4)CC3)n1)CCc1cc(OCc3ccc(OC(F)(F)F)cc3)ccc1-2 [Example 37, (2R,4S)-4-(2-(4-(2-amino-8-((4-(trifluoromethoxy)benzyl)oxy)-5,6-dihydrobenzo[h]quinazolin-4-yl)piperazin-1-yl)ethoxy)tetrahydrofuran-2-carboxylic acid]
< 100 | < 200 | < 100 | < 200 | NC(=O)N1CC(COCCN2CCN(c3nc(N)nc4c3CCc3cc(OCc5ccc(OC(F)(F)F)cc5)ccc3-4)CC2)C1 [Example 39, 3-((2-(4-(2-amino-8-((4-(trifluoromethoxy)benzyl)oxy)-5,6-dihydrobenzo[h]quinazolin-4-yl)piperazin-1-yl)ethoxy)methyl)azetidine-1-carboxamide]
< 100 | 200 to 2000 | < 100 | < 200 | CN1CCN(c2nc(N)nc3c2CCc2cc(NS(=O)(=O)c4ccc(Cl)cc4)ccc2-3)CC1 [Example 42, N-(2-amino-4-(4-methylpiperazin-1-yl)-5,6-dihydrobenzo[h]quinazolin-8-yl)-4-chlorobenzenesulfonamide]
< 100 | 200 to 2000 | < 100 | < 200 | CN1CCN(c2nc(N)nc3c2CCc2cc(NS(=O)(=O)c4ccc(OC(F)(F)F)cc4)ccc2-3)CC1 [Example 54, N-(2-amino-4-(4-methylpiperazin-1-yl)-5,6-dihydrobenzo[h]quinazolin-8-yl)-4-(trifluoromethoxy)benzenesulfonamide]
100 to 500 | < 200 | < 100 | 200 to 2000 | CN(C)[C@H]1CCN(c2nc(N)nc3c2CCc2cc(OCc4ccccc4)ccc2-3)C1 [Example 102, (S)-8-(benzyloxy)-4-(3-(dimethylamino)pyrrolidin-1-yl)-5,6-dihydrobenzo[h]quinazolin-2-amine]
< 100 | < 200 | < 100 | < 200 | CS(=O)(=O)NCCOCCOCCN1CCN(c2nc(N)nc3c2CCc2cc(OCc4ccc(Cl)cc4)ccc2-3)CC1 [Example 111, N-(2-(2-(2-(4-(2-amino-8-((4-chlorobenzyl)oxy)-5,6-dihydrobenzo[h]quinazolin-4-yl)piperazin-1-yl)ethoxy)ethoxy)ethyl)methanesulfonamide dihydrochoride]
< 100 | 200 to 2000 | 100 to 500 | < 200 | CC(C)(OCCOCCN1CCN(c2nc(N)nc3c2CCc2cc(OCc4ccc(Cl)cc4)ccc2-3)CC1)C(=O)O [Example 122, 2-(2-(2-(4-(2-amino-8-((4-chlorobenzyl)oxy)-5,6-dihydrobenzo[h]quinazolin-4-yl)piperazin-1-yl)ethoxy)ethoxy)-2-methylpropanoic acid]
< 100 | < 200 | < 100 | < 200 | Nc1nc2c(c(N3CCN(CCOCCOCC(=O)O)CC3)n1)CCc1cc(OCc3ccc(OC(F)(F)F)cc3)ccc1-2 [Example 143, 2-(2-(2-(4-(2-amino-8-((4-(trifluoromethoxy)benzyl)oxy)-5,6-dihydrobenzo[h]quinazolin-4-yl)piperazin-1-yl)ethoxy)ethoxy)acetic acid formate]
< 100 | 200 to 2000 | < 100 | < 200 | Nc1nc2c(c(N3CCN(CCOCC4CC5(C4)CC(C(=O)O)C5)CC3)n1)CCc1cc(OCc3ccc(Cl)cc3)ccc1-2 (stereo not drawn) [Example 152, 6-((2-(4-(2-amino-8-((4-chlorobenzyl)oxy)-5,6-dihydrobenzo[h]quinazolin-4-yl)piperazin-1-yl)ethoxy)methyl)spiro[3.3]heptane-2-carboxylic acid hydrochloride]
< 100 | < 200 | < 100 | < 200 | Nc1nc2c(c(N3CCN(CCOCCSCC(=O)O)CC3)n1)CCc1cc(OCc3ccc(OC(F)(F)F)cc3)ccc1-2 [Example 178, 2-((2-(2-(4-(2-amino-8-((4-(trifluoromethoxy)benzyl)oxy)-5,6-dihydrobenzo[h]quinazolin-4-yl)piperazin-1-yl)ethoxy)ethyl)thio)acetic acid]
< 100 | < 200 | < 100 | < 200 | [2H]C([2H])(C(=O)O)[C@H]1C[C@@H](OCCN2CCN(c3nc(N)nc4c3CCc3cc(OCc5ccc(OC(F)(F)F)cc5)ccc3-4)CC2)C1 [Example 184, cis-2-(3-(2-(4-(2-amino-8-((4-(trifluoromethoxy)benzyl)oxy)-5,6-dihydrobenzo[h]quinazolin-4-yl)piperazin-1-yl)ethoxy)cyclobutyl)acetic-c-2,2-d2 acid]
< 100 | < 200 | < 100 | < 200 | CN1CCN(c2nc(N)nc3c2CCc2cc(OCc4ccc(F)cc4)ccc2-3)CC1 [Example 196, 8-((4-fluorobenzyl)oxy)-4-(4-methylpiperazin-1-yl)-5,6-dihydrobenzo[h]quinazolin-2-amine]
< 100 | < 200 | < 100 | < 200 | CN1CCN(c2nc(N)nc3c2Cc2ccc(OCc4ccccc4)cc2-3)CC1 [Example 201, 8-(benzyloxy)-4-(4-methylpiperazin-1-yl)-5H-indeno[1,2-d]pyrimidin-2-amine]
